Assay results published in publication PMC10544575, “Inhibitory mechanism of vortioxetine on CYP450 enzymes in human and rat liver microsomes” (Frontiers in Pharmacology, 2023).
pIC50: −log10 of the molar value. Like-named read-outs stand apart in the source and are kept apart here.

Key:
[1] = molecular target: T1, CYP2C8 (Homo sapiens, UniProt P10632); experiment: IC50-shift experiment, CYP2C8 in HLMs; assay type: in vitro ADME; set-up: 0.20 mg/mL HLMs or 0.20 mg/mL RLMs; from tissue; host or cells: human liver microsomes; conditions: for pIC50: amodiaquine 3 μM
T1 sequence (P10632 1-490): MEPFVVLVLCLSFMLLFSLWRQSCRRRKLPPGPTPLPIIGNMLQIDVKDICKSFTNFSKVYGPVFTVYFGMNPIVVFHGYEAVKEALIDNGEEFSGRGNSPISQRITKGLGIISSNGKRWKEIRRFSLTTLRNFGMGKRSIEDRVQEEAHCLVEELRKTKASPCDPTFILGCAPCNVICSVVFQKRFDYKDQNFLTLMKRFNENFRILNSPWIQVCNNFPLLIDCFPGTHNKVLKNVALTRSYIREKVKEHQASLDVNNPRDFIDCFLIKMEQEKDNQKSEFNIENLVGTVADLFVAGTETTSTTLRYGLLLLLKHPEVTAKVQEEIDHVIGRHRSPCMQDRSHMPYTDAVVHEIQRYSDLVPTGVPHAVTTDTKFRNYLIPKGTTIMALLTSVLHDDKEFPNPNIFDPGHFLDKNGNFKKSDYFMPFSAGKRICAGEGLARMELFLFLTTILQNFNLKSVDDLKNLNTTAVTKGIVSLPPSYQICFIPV
Protocol: (§1) The components of the incubation system were as follows: 0.20 mg/mL HLMs or 0.20 mg/mL RLMs, 0.1 M Tris-HCl, vortioxetine, and the probe substrates of each enzyme. In the study of Km’s (Michaelis–Menten constant) experiment, midazolam (1, 2, 5, 10, 20, 50 and 100 μM in HLMs and RLMs) corresponded to CYP3A4/3A; bupropion (10, 20, 50, 100, 200, 500, 1,000 and 2000 μM in HLMs; 1, 2, 5, 10, 20, 50, 100 and 200 μM in RLMs) corresponded to CYP2B6/2B; amodiaquine (5, 10, 20, 50, 100 and 200 μM in HLMs; 10, 20, 50, 100, 200, 500 μM in RLMs) corresponded to CYP2C8/CYP2C-1; losartan (1, 2, 5, 10, 20, 50, 100, 200 μM in HLMs; 10, 20, 50, 100, 200, 500 and 1,000 μM in RLMs) corresponded to CYP2C9/CYP2C-2; mephenytoin (20, 50, 100, 200, 500 and 1,000 μM in HLMs; 5, 10, 20, 50, 100, 200, 500 and 1,000 μM in RLMs) corresponded to CYP2C19/CYP2C-3; and dextromethorphan (1, 2, 5, 10, 20, 50 and 100 μM in HLMs and RLMs) corresponded to CYP2D6/CYP2D. After 5.0 min of preincubation in the shaking water bath, the reaction was started with the addition of 1.0 mM NADPH. The incubated temperature at 37°C for 30 min. After the incubation, the enzyme reaction was stopped by cooling at −80°C, and 200 μL of acetonitrile and 20 μL of internal standard diazepam (200 ng/mL) were added for protein precipitation. […]
IC50-shift was used to investigate whether the drug produced time-dependent inhibition (TDI) of the enzyme. […] During the experiment, the individual substrates midazolam (4 μM), bupropion (40 μM), amodiaquine (3 μM), losartan (8 μM), mephenytoin (90 μM), and dextromethorphan (10 μM) were determined with vortioxetine IC50-shift in HLMs. […]
(§2) All experiments results were detected by UPLC-MS/MS, which equipped with a Waters Acquity UPLC system (Milford, MA, United States) and a Waters Xevo TQ-S triple quadrupole tandem mass spectrometer with an electrospray ionization source (Milford, MA, United States). […]
(§3) IC50 values and enzyme kinetic parameters were calculated by Graphpad Prism 6.0 (GraphPad software Inc., CA, United States). […] Data for each experiment were expressed as mean ± SD (n = 3).

[2] = system: CYP2B; experiment: IC50 of vortioxetine on CYP2B (bupropion) in RLMs; assay type: in vitro ADME; conditions: rat, rat liver microsomes, probe bupropion
Protocol: as §1, with “CYP2D6/CYP2D.” for “CYP2D6/CYP2D. After 5.0 min of preincubation in the shaking water bath, the reaction was started with the addition of 1.0 mM NADPH. The incubated temperature at 37°C for 30 min. After the incubation, the enzyme reaction was stopped by cooling at −80°C, and 200 μL of acetonitrile and 20 μL of internal standard diazepam (200 ng/mL) were added for protein precipitation.”
as §2, §3

[3] = system: CYP2B; experiment: Reversible inhibition kinetics (Lineweaver-Burk), CYP2B in RLMs; assay type: in vitro ADME, rat
Protocol: as §1, with “CYP2D6/CYP2D.” for “CYP2D6/CYP2D. After 5.0 min of preincubation in the shaking water bath, the reaction was started with the addition of 1.0 mM NADPH. The incubated temperature at 37°C for 30 min. After the incubation, the enzyme reaction was stopped by cooling at −80°C, and 200 μL of acetonitrile and 20 μL of internal standard diazepam (200 ng/mL) were added for protein precipitation.”
as §2, §3

[4] = system: CYP2D; experiment: Reversible inhibition kinetics (Lineweaver-Burk), CYP2D in RLMs; assay type: in vitro ADME, rat
Protocol: as §1, with “CYP2D6/CYP2D.” for “CYP2D6/CYP2D. After 5.0 min of preincubation in the shaking water bath, the reaction was started with the addition of 1.0 mM NADPH. The incubated temperature at 37°C for 30 min. After the incubation, the enzyme reaction was stopped by cooling at −80°C, and 200 μL of acetonitrile and 20 μL of internal standard diazepam (200 ng/mL) were added for protein precipitation.”
as §2, §3

pIC50 ([1]; 30 min preincubation with 1.0 mM NADPH): 4.73
pIC50 ([1]; 30 min preincubation without NADPH): 4.74
IC50 at 30 min ([2]; RLMs 0.20 mg/mL, bupropion at Km, 37°C, 30 min, read-out: IC50): 8.89 µM
IC50 at 30 min ([2]; inhibitory effect (strength judged by IC50), RLMs): 1 to 10 µM
Inhibition type ([3]; bupropion, Lineweaver-Burk plot): competitive inhibition
Ki at 30 min ([3]; rat, rat liver microsomes, probe bupropion): 2.87 µM
Inhibition type ([4]; dextromethorphan, Lineweaver-Burk plot): uncompetitive inhibition
Ki at 30 min ([4]; rat, rat liver microsomes, probe dextromethorphan): 101 µM
Compound: Cc1ccc(Sc2ccccc2N2CCNCC2)c(C)c1 [vortioxetine]
IC50 shift at 30 min ([1]; human, human liver microsomes, probe amodiaquine (3 μM), ratio IC50 (−) NADPH to IC50 (+) NADPH, read-out: IC50 fold shift): 0.97
